Consider 4 molecules from patent publication US7897637B2, “Methods of using flavonoids to enhance memory” (The Salk Institute for Biological Studies, priority 2006, dated 2011).

One experiment relates to ERK. To be noted: Vanhoutte et al. 1999; English & Sweatt 1997; cited from earlier work.
The subject of another experiment is Male C57Bl/6J mice. Put plainly: Object recognition task. The following applies: oral, dose not given; vs vehicle. It is filed as in vivo. Here is the method: The effect of fisetin, 3,3′,4′-THF, and apigenin (5,7,4′-THF) on memory was tested in mice using an object recognition task (Ennaceur and Delacour, Behav. Brain Res., 31:47-59, 1988). Among the alternatives available for testing memory, this assay has proven very effective for measuring CREB-dependent functions (Prickaerts et al., Neurosci., 113:351-61, 2002; Bourtchouladze et al., Proc. Natl. Acad. Sci. USA, 100:10518-22, 2003). In this test, mice are presented with two identical objects during the training period which they explore for a fixed time period. To test for memory, mice are presented one day later with two different objects, one of which was presented previously during the training and is thus familiar to the mice, and the other that is novel. The better a mouse remembers the familiar object, the more time it will spend exploring the novel object. To test the effects of fisetin, 3,3′,4′-THF, or apigenin (5,7,4′-THF) in this memory task, the respective compound was administered orally to the mice before the start of the training period. Rolipram, a phosphodiesterase inhibitor that potentiates memory in this assay (Bourtchouladze et al., Proc. Natl. Acad. Sci. USA, 100:10518-22, 2003), requires intraperitoneal injection and was used as a positive control.
Male C57Bl/6J mice (Jackson Laboratories) were used and the testing was done by PsychoGenics (Tarrytown, N.Y.). All mice were acclimated to the colony room for at least 2 weeks prior to testing and were tested at an average age of 8 weeks. Mice were randomly assigned across treatment groups with 10 mice in each group. For each dose tested, a 10× solution of fisetin was prepared in 95% ethanol and then diluted with 4 volumes polyethylene glycol 660 hydroxystearate (Solut HS15 from BASF) and 5 volumes phosphate buffered saline. The vehicle was contained the identical ratios of ethanol, Solut HS15 and phosphate buffered saline. All were administered orally 60 minutes prior to training at a volume of 10 ml/kg body weight. Rolipram was dissolved in 10% DMSO and administered intraperitoneally 20 minutes prior to training. The test was performed as previously described by Bourtchouladze et al. (Proc. Natl. Acad. Sci. USA, 100:10518-22, 2003). Briefly, on Day 1 mice were habituated to a circular open field arena for one hour in cage groups of four. Twenty-four (24) hours later, individual mice were placed back in the same arena which now contained two identical objects for a 15 minutes training trial. […] Each animal's test trial was recorded and the first 10 minutes of each session were scored. […] Data were analyzed by a one-way ANOVA followed by post-hoc comparisons with Fisher's test. […]

Another experiment concerns HT22 cells. The experiment can be described thus: Protection of HT22 cells from oxidative glutamate toxicity (MTT assay). It is filed as cell-based, mouse. From the text:
Fisetin is effective at protecting nerve cells from oxidative stress-induced death (Ishige et al., Free Radic. Biol. Med., 30:433-446, 2001). This Example illustrates the structure-activity relationship between fisetin derivatives and neuroprotection in a model of oxidative glutamate toxicity using mouse HT22 cells. This pathway of programmed cell death is initiated by the addition of glutamate to the extracellular medium. Glutamate inhibits the uptake of cystine which is required for glutathione (GSH) biosynthesis, resulting in the depletion of GSH in neurons (for review see Tan et al., Curr. Top. Med. Chem., 1:497-506, 2001). Subsequently, this decrease in cellular GSH results in the production of reactive oxygen species (ROS) by mitochondria. The ROS accumulation then causes Ca^+2 influx from the extracellular medium which leads to cell death.
HT22 cells were untreated (Ct) or treated with 10 μM fisetin, 25 μM 3,3′-DHF, 25 μM 3,4′-DHF, 2.5 μM 3′,4′-DHF, 2.5 μM 3,3′,4′-THF 25 μM 3,7,3′-THF, 25 μM 3,7,4′-THF or 10 μM 7,3′,4′-THF in the presence of 5 mM glutamate±50 μM PD98059. Twenty four (24) hours later cell survival was measured by the MTT assay.
HT22 cells were untreated (Ct) or treated with 10 μM fisetin, 25 μM 3,3′-DHF. […] Protection by all of the other flavonoids was unaffected by BSO.
Cell viability was determined by a modified version of the 3-(4,5-dimethylthiazol-2-yl)-2,5-diphenyl tetrazolium bromide (MTT) assay based on the standard procedure (Hansen et al., J. Immunol. Meth., 119:203-10, 1989). Briefly, cells were seeded onto 96-well microtiter plates at a density of 5×10^3 cells per well. The next day, the medium was replaced with DMEM supplemented with 7.5% DFCS and the cells were treated with the different flavonoids alone or in the presence of 5 mM glutamate. Twenty four hours later, the medium in each well was aspirated and replaced with fresh medium containing 2.5 μg/ml MTT. After 4 hours of incubation at 37° C., cells were solubilized with 100 μl of a solution containing 50% dimethylformamide and 20% SDS (pH 4.7). The absorbance at 570 nm was measured on the following day with a microplate reader (Molecular Devices). Results obtained from the MTT assay correlated directly with the extent of cell death as confirmed visually. Controls employing wells without cells were used to determine the effects of the agents upon the assay chemistry.
(Tetrazolium assays rely on reduction of a dye to a coloured formazan, in cell work by metabolically active cells.)

Experiment [1] in a line: Trolox Equivalent Activity Concentration (ABTS decolorization assay). To be noted: Trolox as reference. How it is done: To determine if the protection seen with the different fisetin derivatives correlated with their antioxidant properties, their Trolox Equivalent Activity Concentration (TEAC) values were determined. In this procedure, a compound is compared to Trolox, a water-soluble vitamin E analog, for its ability to reduce the radical cation of ABTS in aqueous solution. As reported previously, fisetin has a TEAC value of ˜3 (Table II). None of the derivatives had TEAC values in this range despite, in some cases, showing better protection against oxidative stress-induced death. Thus, there was no correlation with antioxidant activity as defined by TEAC value and protection in this system.
TEAC values for the flavonoids were determined according to (Re et al. Free Rad. Biol. Med., 26:1231-7, 1999) but modified for a plate reader. Briefly, 250 μl of 2,2′-azinobis(3-ethylbenzothiazoline 6-sulfonate)(ABTS) treated overnight with potassium persulfate and diluted to an OD of ˜0.7 at 734 nm was added to 2.5 μl of a flavonoid solution in ethanol. The change in absorbance due to the reduction of the ABTS radical cation was measured at 734 nm for 4 minutes. To calculate the TEAC, the gradient of the plot of the percentage inhibition of absorbance vs. concentration for the flavonoid in question is divided by the gradient of the plot for Trolox.

A further experiment has as its system PC12 cells. The experiment can be described thus: PC12 cell differentiation assay (neurite outgrowth). The class given is cell-based. To be noted: Rattus norvegicus, PC-12, PC12 cells in N2 medium, 24 hours, neurites scored. Here is the method:
Four trihydroxyflavones (THF) and three dihydroxyflavones (DHF) which lack one or two, respectively, of the hydroxyl groups found in fisetin were tested for their ability to induce the differentiation of PC12 cells. Differentiation was assessed by scoring neurite outgrowth (Sagara et al., J. Neurochem., 90:1144-1155, 2004). […]
PC12 cells in N2 medium were treated with flavonoids for 24 hours at which time the cells were scored for the presence of neurites. PC12 cells produce neurites much more rapidly when treated in N2 medium than when treated in regular growth medium (Kimura et al., J. Cell Biol., 116:777-83, 1992). For each treatment, 100 cells in each of three separate fields were counted. Cells were scored positive if one or more neurites>1 cell body diameter in length were observed.

The subject of the next experiment is GSH. Put plainly: Total cellular GSH levels in HT22 cells. It is filed as cell-based, mouse. The following applies: 8 hours. How it is done: The effects of fisetin derivatives on cellular GSH levels was then determined. HT22 cells were untreated (Ct) or treated with 10 μM fisetin, 25 μM 3,3′-DHF, 25 μM 3,4′-DHF, 2.5 μM 3′,4′-DHF, 2.5 μM 3,3′,4′-THF, 25 μM 3,7,3′-THF, 25 μM 3,7,4′-THF or 10 μM 7,3′,4′-THF alone or in the presence of 5 mM glutamate. After 8 hours cellular levels of total GSH were determined as described in Example 4. The GSH level of the control sample (31.5±10 nmoles/mg protein) was taken as 100%.
Total intracellular GSH/GSSG was determined using whole cell lysates from untreated, glutamate treated, flavonoid treated and glutamate plus flavonoid treated cells as described (Maher and Hanneken, Invest. Opthalmol. Vis. Sci., 46:749-57, 2005, herein incorporated by reference as to the method) and normalized to total cellular protein.

Another experiment deals with cAMP. Put plainly: cAMP levels in hippocampal slices (Scintillation Proximity Assay). The class given is cell-based. Here is the method: Hippocampal slices were treated with fisetin using the conditions where maximal stimulation of CREB phosphorylation and facilitation of LTP were observed. Briefly, hippocampal slices in ACSF were treated with 1 μM fisetin for 5 minutes (fisetin) or 3 μM rolipram for 30 minutes (rolipram) and then either immediately frozen or treated with […] forskolin for an additional 15 minutes (rolipram+forskolin; fisetin+forskolin) prior to freezing. Additional slices were treated only with 5 μM forskolin for 15 minutes (forskolin). Forskolin, an activator of adenylyl cyclase, and rolipram were used as positive controls. The levels of cAMP in the slices were measured using a Scintillation Proximity Assay and presented as pmole/mg protein±S.D.
(In general: Changes in cAMP serve as a functional read-out for many G protein-coupled receptors.)

Each structure is given as a SMILES string.

On to `CN[C@H](CC(=O)O)C(=O)O` [NMDA], for which the “increase in ERK phosphorylation reported following treatment of slices” value with ERK was approximately 2.5 fold.
For the molecule `O=c1cc(-c2ccc(O)cc2)oc2cc(O)cc(O)c12` [apigenin, reference compound], in the experiment on Male C57Bl/6J mice, the object recognition entry is “did not exhibit significantly better object recognition”.
For orientation: EC50 means the concentration giving half of the maximal effect. Consider `O=c1cc(-c2ccc(O)c(O)c2)oc2cc(O)ccc12` [7,3′,4′-THF, 3′,4′,7-trihydroxyflavone], for which the “effect of higher levels of BSO on protection” value in the experiment with HT22 cells (5 mM glutamate + 1 mM BSO, 24 hours, MTT) is recorded as “reduced protection”. The “protection from oxidative stress-induced death” value with HT22 cells (HT22 cells, glutamate) is “equal to or more effective than fisetin”. Also, the concentration for a half-maximal effect (EC50) in the experiment on HT22 cells (Mus musculus, HT-22, 24 h, HT22 cells, 5 mM glutamate, 24 hours, MTT assay, read-out: EC50 (μM), protection from oxidative-stress induced death) came out at 5 µM; with PC12 cells (read-out: EC50 (μM), induction of PC12 cell differentiation), 10 µM. Further, the Emax in the experiment on HT22 cells (Mus musculus, HT-22, HT22 cells, 5 mM glutamate, 24 hours, MTT assay, read-out: Maximal Efficacy, protection from oxidative-stress induced death) is more than 80%; in the experiment on PC12 cells (read-out: Maximal Efficacy, induction of PC12 cell differentiation), 50 to 60%. Besides, in experiment [1], the TEAC is given as 0.89 ± 0.04. Further, the “GSH levels in the presence of oxidative stress” value in the experiment with GSH (5 mM glutamate) is reported as “could not maintain GSH levels”. In addition, the “basal levels of GSH” value with GSH (flavonoid alone) is on record as “raised the basal levels of GSH”.
As to `COc1ccc(C2CNC(=O)C2)cc1OC1CCCC1` (stereo not shown) [rolipram, reference compound], in the experiment on cAMP (1 μM fisetin 5 minutes, 3 μM rolipram 30 minutes), the “effect on cAMP levels by itself” value is “modestly increased”. Also, in the experiment on cAMP (then 5 μM forskolin for 15 minutes), the “potentiation of the effect of forskolin on cAMP levels” value is given as “significantly potentiated”.
